Patent US20200237852A1, “Small Molecule Enhancers of Paneth Cell Function and Differentiation” (Massachusetts Institute of Technology, priority 2019, published 2020)

Columns and labels:
6-day ENR+CD cells [1] = assay: Cell pellet ATP after long-term (48-hour) treatment; format: cell-based, murine; details: low doses
From the text: (§1) We next sought to profile potential long-term modulators of differentiated PC survival and antimicrobial secretion, as well as gauge the interaction between long-term modulators and short-term induced secretion (via CCh). To accomplish this, we employed a similar set up as in the short-term experiment, with the exception that upon plating day 4 ENR+CD cells we additionally supplemented in either MDP, LPS, TNF-α, or IFN-γ for the additional 2 days in culture and assayed all conditions for both basal and CCh-induced LYZ secretion over 3 hours on day 6 of differentiation (FIG. 3A). […] Additionally, we see that the long-term addition reduces CCh-induced secretory function relative to the untreated control for all agents (FIG. 3D).
Small intestinal crypts were isolated from C57BL/6 mice of both sexes, aged between three to six months in all experiments. Crypts were then cultured in a Matrigel culture system. Briefly, crypts were resuspended in basal culture medium (Advanced DMEM/F12 with 2 mM GlutaMAX and 10 mM HEPES; Thermo Fisher Scientific) at a 1:1 ratio with Corning™ Matrigel™ Membrane Matrix—GFR (Fisher Scientific) and plated at the center of each well of 24-well plates. Following Matrigel polymerization, 500 μL of small intestinal crypt culture medium (basal media plus 100× N2 supplement, 50×B27 supplement; Life Technologies, 500× N-acetyl-L-cysteine; Sigma-Aldrich) supplemented with growth factors EGF—E (50 ng/mL, Life Technologies), Noggin—N (100 ng/mL, PeproTech) and R-spondin 1—R (500 ng/mL, PeproTech) and small molecules CHIR99021—C (3 μM, LC Laboratories) and valproic acid—V (1 mM, Sigma-Aldrich) was added to each well. ROCK inhibitor Y-27632—Y (10 μM, R&D Systems) was added for the first 2 days of culture. Cells were cultured at 37° C. with 5% CO2, and cell culture medium was changed every other day. After 6 days of culture, crypt organoids were isolated from Matrigel by mechanical dissociation. To expand enriched ISCs (ENR+CV/Y) or Paneth Cells (ENR+CD), organoids were cultured in 24-well plates, suspended in 40 uL 3-D gels (50-50 GFR MATRIGEL®, Basal culture media), with 500 uL of crypt media supplemented with necessary growth factors and small molecules. […]
For 96-well plate high-throughput screening, 4-day differentiated (ENR+CD) cell clusters in 3D Matrigel were transferred to a “2.5-D” 96-well plate culture system. […] On the last repeat, pellet was resuspended in basal culture medium, the number of cell clusters counted, and centrifuged at 300 g for 3 min at 4° C. […] At end time points (following 2 days in culture and 3 hours of stimulation), lysozyme secretion and cell viability were assessed using Lysozyme Assay Kit and CellTiter-Glo 3D Cell Viability Assay (Promega), respectively, according to the manufacturers' protocols. […]

6-day ENR+CD cells [2] = assay: Long-term (48-hour) modulators of basal and CCh-induced LYZ secretion; format: cell-based, murine; details: 48-hour treatment
From the text: as §1
Small intestinal crypts were isolated from C57BL/6 mice of both sexes, aged between three to six months in all experiments. Crypts were then cultured in a Matrigel culture system. Briefly, crypts were resuspended in basal culture medium (Advanced DMEM/F12 with 2 mM GlutaMAX and 10 mM HEPES; Thermo Fisher Scientific) at a 1:1 ratio with Corning™ Matrigel™ Membrane Matrix—GFR (Fisher Scientific) and plated at the center of each well of 24-well plates. Following Matrigel polymerization, 500 μL of small intestinal crypt culture medium (basal media plus 100× N2 supplement, 50×B27 supplement; Life Technologies, 500× N-acetyl-L-cysteine; Sigma-Aldrich) supplemented with growth factors EGF—E (50 ng/mL, Life Technologies), Noggin—N (100 ng/mL, PeproTech) and R-spondin 1—R (500 ng/mL, PeproTech) and small molecules CHIR99021—C (3 μM, LC Laboratories) and valproic acid—V (1 mM, Sigma-Aldrich) was added to each well. ROCK inhibitor Y-27632—Y (10 μM, R&D Systems) was added for the first 2 days of culture. Cells were cultured at 37° C. with 5% CO2, and cell culture medium was changed every other day. After 6 days of culture, crypt organoids were isolated from Matrigel by mechanical dissociation. To expand enriched ISCs (ENR+CV/Y) or Paneth Cells (ENR+CD), organoids were cultured in 24-well plates, suspended in 40 uL 3-D gels (50-50 GFR MATRIGEL®, Basal culture media), with 500 uL of crypt media supplemented with necessary growth factors and small molecules. ROCK inhibitor (Y) was added for the first two days of ISC culture following reconstitution from cryopreservation or trypLE passaging to single cells. Cell culture medium was changed every other day. After 4 days of culture in ENR+CV, cell clusters were differentiated to PCs under the ENR+CD condition for 96-well short and long-term screens. For 384-well differentiation screens, 4-day ENR+CV clusters were passaged to single cells using trypLE, replated and expanded another 3 days in 3-D ENR+CVY and then passaged directly into screens.
For 96-well plate high-throughput screening, 4-day differentiated (ENR+CD) cell clusters in 3D Matrigel were transferred to a “2.5-D” 96-well plate culture system. Briefly, cell culture gel and medium were homogenized via mechanical disruption and centrifuged at 300 g for 3 min at 4° C. […] On the last repeat, pellet was resuspended in basal culture medium, the number of cell clusters counted, and centrifuged at 300 g for 3 min at 4° C. […] At end time points (following 2 days in culture and 3 hours of stimulation), lysozyme secretion and cell viability were assessed using Lysozyme Assay Kit and CellTiter-Glo 3D Cell Viability Assay (Promega), respectively, according to the manufacturers' protocols. […]

6-day ENR+CD cells [3] = assay: Cell pellet ATP after short-term (3-hour) stimulation, 2.5-D 96-well platform; format: cell-based, murine; details: CCh: adj. p<0.01 for 10 and 100 μM doses
From the text: We first sought to profile the potential short-term actors, IFN-γ, LPS, and CCh, and see if with the added resolution of this first-of-its-kind PC platform, we might be able to determine high-resolution EC50's. To generate sufficient cells for plating out all necessary conditions we first expanded and enriched ISCs in traditional 3-D culture and subsequently differentiated for 4 days towards PCs (ENR+CD). Next, we passaged and plated these cells into 96-well plates as 2.5-D and continued differentiating for an additional 2 days in ENR+CD. On day 6 of differentiation, each well was then washed with basal media repeatedly and stimulated with its respective agent, with a measurement of supernatant LYZ paired to cell pellet ATP (FIG. 2A). This screen was repeated on three separate occasions with cells from three distinct murine donors and analyzed combined. We first wanted to determine the approximate standardized effect size of each treatment at each dose, which was accomplished through the replicate-based strictly standardized mean difference (SSMD), an effect size measure based on the statistics of contrast variables, and particularly useful in screening applications as it is a measure which takes into account both mean difference and variance in a single measure. […]

6-day ENR+CD cells [4] = assay: Short-term (3-hour) stimulation of LYZ secretion, 2.5-D 96-well platform; format: cell-based, murine
From the text: We first sought to profile the potential short-term actors, IFN-γ, LPS, and CCh, and see if with the added resolution of this first-of-its-kind PC platform, we might be able to determine high-resolution EC50's. To generate sufficient cells for plating out all necessary conditions we first expanded and enriched ISCs in traditional 3-D culture and subsequently differentiated for 4 days towards PCs (ENR+CD). Next, we passaged and plated these cells into 96-well plates as 2.5-D and continued differentiating for an additional 2 days in ENR+CD. On day 6 of differentiation, each well was then washed with basal media repeatedly and stimulated with its respective agent, with a measurement of supernatant LYZ paired to cell pellet ATP (FIG. 2A). This screen was repeated on three separate occasions with cells from three distinct murine donors and analyzed combined. We first wanted to determine the approximate standardized effect size of each treatment at each dose, which was accomplished through the replicate-based strictly standardized mean difference (SSMD), an effect size measure based on the statistics of contrast variables, and particularly useful in screening applications as it is a measure which takes into account both mean difference and variance in a single measure. […] In total, we see that our 2.5-D platform does provide a reasonable system for assessing and screening for potential short-term modulators of PC antimicrobial secretion.
Small intestinal crypts were isolated from C57BL/6 mice of both sexes, aged between three to six months in all experiments. Crypts were then cultured in a Matrigel culture system. Briefly, crypts were resuspended in basal culture medium (Advanced DMEM/F12 with 2 mM GlutaMAX and 10 mM HEPES; Thermo Fisher Scientific) at a 1:1 ratio with Corning™ Matrigel™ Membrane Matrix—GFR (Fisher Scientific) and plated at the center of each well of 24-well plates. […]

[5] = tested on: organoids differentiated under ENR+CV, ENR+CD, or ENR; assay: Western blotting for LYZ in organoids; format: cell-based, C57BL/6 mice; details: six days in ENR+CV
From the text: ISC-enriched organoids cultured in 3D Matrigel with ENRCV media were passaged to 24-well plate in 3D Matrigel with ENRCV. At day zero, media were replaced to ENR or ENRCD with or without indicated compounds, and media were replaced every other day. At day six, cells were harvested from Matrigel by mechanical disruption and suspended in basal media. Cell pellets were lysed with Pierce® IP lysis buffer (ThermoFisher, 87787) containing Halt™ Protease Inhibitor Cocktail, EDTA-Free (ThermoFisher, 87785) after 3-minute centrifuge at 300×g at 4° C. Cell extracts were resolved by NuPAGE® SDS-PAGE Gel system (ThermoFisher) and electroblotted onto polyvinylidene difluoride membranes using Criterion™ Blotter (Biorad). The membranes were blocked with 2% Blotting-Grade Blocker (Biorad, 1706404) in TBS-T (50 mM Tris-HCl, 150 mM NaCl, and 0.1% Tween 20, pH 8.0) and then probed with appropriate antibodies. Detection was performed using ECL Select™ Western Blotting Detection Reagent (Amersham, 45-000-999) and ImageQuant LAS4000 (GE Healthcare).

ENR+CD organoids = assay: Flow cytometry analysis, 3D culture, XPO1 inhibitors; format: cell-based, C57BL/6 mice; details: 6-day ENR+CD organoids
Description: ISC-enriched organoids cultured in 3D Matrigel with ENRCV media were passaged to 24-well plate in 3D Matrigel with ENRCV. At day zero, media were replaced to ENRCD with or without indicated compounds, and media were replaced every other day. At day six, cells were washed with basal media, and then harvested from Matrigel by mechanical disruption in TrypLE Express (ThermoFisher, 12605010) to remove Matrigel and dissociate organoids to single cells. After vigorous pipetting and incubation at 37° C. for 20 min, dissociated organoids were strained through a 35 μm cell strainer into a tube (Falcon, 352235). The cell filtrate was centrifuged again at 300×g for 3 min at 4° C. to pellet the cells. Cell pellets were resuspended in FACS buffer (2% FBS in PBS), and then transferred to an ultra low-bind 96-well plate (Corning, 7007). Cells were stained with Zombie-violet viability dye (BioLegend, 423107) at 100× for viability staining and/or antibody staining solution. FITC-conjugated antibody for lysozyme (Dako, […]) and APC-conjugated antibody for CD24 (BioLegend, 138505) were used at 100× dilution. Flow cytometry was performed using an LSR Fortessa (BD; Koch Institute Flow Cytometry Core at MIT). The data were analyzed using FlowJo v10 software.

CC(=O)N[C@H]1C(O)O[C@H](CO)[C@@H](O)[C@@H]1O[C@H](C)C(=O)N[C@@H](C)C(=O)N[C@H](CCC(=O)O)C(N)=O (mixture of isomers) [MDP, muramyl dipeptide]
SSMD effect size of increase in cell number (ATP) (6-day ENR+CD cells [1]): fairly moderate | change in cell number (ATP rel. to ENR+CD) (6-day ENR+CD cells [1]): apparent increases in cell number | effect size of reduction of CCh-induced secretory function relative to untreated control (6-day ENR+CD cells [2]; CCh-induced secretion over 3 hours on day 6): fairly moderate | change in basal LYZ secretion (SSMD effect) (6-day ENR+CD cells [2]; basal secretion over 3 hours on day 6): fairly moderate decrease in basal secretion

C[N+](C)(C)CCOC(N)=O.[Cl-] [CCh, carbamyl choline]
effect on cellular ATP (6-day ENR+CD cells [3]): significant effect on cellular ATP | EC50 (6-day ENR+CD cells [4]; 3-hour stimulation of 6-day ENR+CD cells, 9-well replicates from 3 bio. donors, read-out: EC50 for LYZ secretion (least-squares dose-response fit)): 5 µM | SSMD effect size as short-term modulator of LYZ secretion (6-day ENR+CD cells [4]; 3-hour stimulation, across all tested doses): strong effect

CCC(=C/[C@H](C)C/C=C/C(C)=C/[C@@H](C)C(=O)[C@@H](C)[C@H](O)[C@@H](C)C/C(C)=C/C(=O)O)/C=C/[C@@H]1OC(=O)C=C[C@@H]1C [Leptomycin B]
LYZ abundance on a per-mass protein normalized basis (western blot) [5]: appreciably increase LYZ abundance | Paneth cell representation by flow cytometry (ENR+CD organoids): statistically significant increases in Paneth cell representation
